Assay results from ChEMBL document CHEMBL1201861, “Genomics of Drug Sensitity in Cancer screening data, Wellcome Trust Sanger Institute”.
pIC50: −log10 of the molar value.

Assays:
Assay in all cases: cells
GCT = assay type: functional, cell-based; settings: Homo sapiens;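 further: GCT cell line proliferation inhibition, read out with a cell viability assay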
Description: SANGER: Inhibition of human GCT cell growth in a cell viability assay.

MDA-MB-157 = assay type: functional, cell-based; settings: Homo sapiens
Description: SANGER: Inhibition of human MDA-MB-157 cell growth in a cell viability assay.

UMUC3 = assay type: functional, cell-based; settings: Homo sapiens;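 further: growth inhibition of human UM-UC-3 cells, read out with a cell viability assay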
Description: SANGER: Inhibition of human UM-UC-3 cell growth in a cell viability assay.

RO82-W-1 = assay type: functional, cell-based; settings: Homo sapiens;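 further: growth inhibition of human RO82-W-1 cells, measured with a cell viability assay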
Description: SANGER: Inhibition of human RO82-W-1 cell growth in a cell viability assay.

FaDu = assay type: functional, cell-based; settings: Homo sapiens;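 further: cell viability readout of growth inhibition in FaDu cells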
Description: SANGER: Inhibition of human FADU cell growth in a cell viability assay.

NCI-H1573 = assay type: functional, cell-based; settings: Homo sapiens;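 further: growth inhibition of NCI-H1573 cells, read out with a cell viability assay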
Description: SANGER: Inhibition of human NCI-H1573 cell growth in a cell viability assay.

SK-MES-1 = assay type: functional, cell-based; settings: Homo sapiens;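 further: growth inhibition of human SK-MES-1 cells, read out with a cell viability assay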
Description: SANGER: Inhibition of human SK-MES-1 cell growth in a cell viability assay.

COR-L105 = assay type: functional, cell-based; settings: Homo sapiens;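 further: cell growth inhibition determined with a viability assay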
Description: SANGER: Inhibition of human COR-L105 cell growth in a cell viability assay.

A204 = assay type: functional, cell-based; settings: Homo sapiens;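 further: growth inhibition of human A204 cells, read out with a cell viability assay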
Description: SANGER: Inhibition of human A204 cell growth in a cell viability assay.

Panc1005 = assay type: functional, cell-based; settings: Homo sapiens;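 further: growth inhibition of human PANC-10-05 cells, measured by a cell viability assay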
Description: SANGER: Inhibition of human PANC-10-05 cell growth in a cell viability assay.

SCC-25 = assay type: functional, cell-based; settings: Homo sapiens;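 further: growth inhibition of SCC-25 cells, measured with a cell viability assay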
Description: SANGER: Inhibition of human SCC-25 cell growth in a cell viability assay.

PANC-08-13 = assay type: functional, cell-based; settings: Homo sapiens;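 further: cell growth inhibition, measured with a cell viability assay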
Description: SANGER: Inhibition of human PANC-08-13 cell growth in a cell viability assay.

LoVo = assay type: functional, cell-based; settings: Homo sapiens;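 further: growth inhibition of human LoVo cells, read out with a cell viability assay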
Description: SANGER: Inhibition of human LoVo cell growth in a cell viability assay.

CWR22R = assay type: functional, cell-based; settings: Homo sapiens, 22Rv1;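 further: growth inhibition of 22Rv1 cells, read out with a cell viability assay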
Description: SANGER: Inhibition of human 22RV1 cell growth in a cell viability assay.

HT1197 = assay type: functional, cell-based, HT-1197; settings: Homo sapiens
Description: SANGER: Inhibition of human HT-1197 cell growth in a cell viability assay.

LCLC-97TM1 = assay type: functional, cell-based; settings: Homo sapiens;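 further: cell viability assay measuring growth inhibition of human LCLC-97TM1 cells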
Description: SANGER: Inhibition of human LCLC-97TM1 cell growth in a cell viability assay.

OE33 = assay type: functional, cell-based; settings: Homo sapiens;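 further: growth inhibition of human OE33 cells, measured by a cell viability assay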
Description: SANGER: Inhibition of human OE33 cell growth in a cell viability assay.

COLO-741 = assay type: functional, cell-based; settings: Homo sapiens
Description: SANGER: Inhibition of human COLO-741 cell growth in a cell viability assay.

NCI-H1563 = assay type: functional, cell-based; settings: Homo sapiens;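 further: growth inhibition of human NCI-H1563 cells, read out with a cell viability assay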
Description: SANGER: Inhibition of human NCI-H1563 cell growth in a cell viability assay.

Ca9-22 = assay type: functional, cell-based; settings: Homo sapiens;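 further: growth inhibition of Ca9-22 cells, read out with a cell viability assay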
Description: SANGER: Inhibition of human Ca9-22 cell growth in a cell viability assay.

CAL-27 = assay type: functional, cell-based; settings: Homo sapiens;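 further: Viability-based readout, IC50 reflecting inhibition of CAL-27 cell growth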
Description: SANGER: Inhibition of human CAL-27 cell growth in a cell viability assay.

NB14 = assay type: functional, cell-based; settings: Homo sapiens;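 further: growth inhibition of NB14 cells measured with a cell viability assay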
Description: SANGER: Inhibition of human NB14 cell growth in a cell viability assay.

UMC-11 = assay type: functional, cell-based; settings: Homo sapiens;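 further: growth inhibition of UMC-11 cells, read out with a cell viability assay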
Description: SANGER: Inhibition of human UMC-11 cell growth in a cell viability assay.

T-24 = assay type: functional, cell-based; settings: Homo sapiens;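 further: growth inhibition of T-24 cells, read out with a cell viability assay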
Description: SANGER: Inhibition of human T-24 cell growth in a cell viability assay.

HCC1395 = assay type: functional, cell-based; settings: Homo sapiens;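 further: growth inhibition of HCC1395 cells, read out by a cell viability assay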
Description: SANGER: Inhibition of human HCC1395 cell growth in a cell viability assay.

GAMG = assay type: functional, cell-based; settings: Homo sapiens;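 further: cell growth inhibition measured by a viability assay in the GAMG human cell line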
Description: SANGER: Inhibition of human GAMG cell growth in a cell viability assay.

KYSE-180 = assay type: functional, cell-based; settings: Homo sapiens;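 further: growth inhibition of KYSE-180 cells, read out with a cell viability assay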
Description: SANGER: Inhibition of human KYSE-180 cell growth in a cell viability assay.

MKN-7 = assay type: functional, cell-based; settings: Homo sapiens;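 further: growth inhibition of MKN-7 cells, read out with a cell viability assay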
Description: SANGER: Inhibition of human MKN7 cell growth in a cell viability assay.

BFTC-905 = assay type: functional, cell-based; settings: Homo sapiens
Description: SANGER: Inhibition of human BFTC-905 cell growth in a cell viability assay.

NCI-H2228 = assay type: functional, cell-based; settings: Homo sapiens;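 further: growth inhibition of human NCI-H2228 cells, read out by a cell viability assay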
Description: SANGER: Inhibition of human NCI-H2228 cell growth in a cell viability assay.

HCC1937 = assay type: functional, cell-based; settings: Homo sapiens;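 further: growth inhibition measured with a cell viability read-out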
Description: SANGER: Inhibition of human HCC1937 cell growth in a cell viability assay.

MeWo = assay type: functional, cell-based; settings: Homo sapiens;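 further: growth inhibition of MeWo cells, determined by a cell viability readout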
Description: SANGER: Inhibition of human Mewo cell growth in a cell viability assay.

ChaGo-K-1 = assay type: functional, cell-based; settings: Homo sapiens;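 further: growth inhibition of ChaGo-K-1 cells, read out with a cell viability assay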
Description: SANGER: Inhibition of human ChaGo-K-1 cell growth in a cell viability assay.

MOLT-13 = assay type: functional, cell-based; settings: Homo sapiens;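 further: IC50 for suppression of MOLT-13 cell growth, read out with a cell viability assay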
Description: SANGER: Inhibition of human MOLT-13 cell growth in a cell viability assay.

FTC-133 = assay type: functional, cell-based; settings: Homo sapiens
BPH-1 = assay type: functional, cell-based; settings: Homo sapiens;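 further: cell viability assay measuring growth inhibition of human BPH-1 cells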
Description: SANGER: Inhibition of human BPH-1 cell growth in a cell viability assay.

Capan-2 = assay type: functional, cell-based; settings: Homo sapiens;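 further: Capan-2 cell growth inhibition, read out with a viability assay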
Description: SANGER: Inhibition of human Capan-2 cell growth in a cell viability assay.

ABC-1 = assay type: functional, cell-based; settings: Homo sapiens;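 further: growth inhibition of human ABC-1 cells, read out by a cell viability assay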
Description: SANGER: Inhibition of human ABC-1 cell growth in a cell viability assay.

DBTRG-05MG = assay type: functional, cell-based; settings: Homo sapiens;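 further: cell viability assay measuring growth inhibition of human DBTRG-05MG cells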
Description: SANGER: Inhibition of human DBTRG-05MG cell growth in a cell viability assay.

HT-1080 = assay type: functional, cell-based; settings: Homo sapiens
Description: SANGER: Inhibition of human HT-1080 cell growth in a cell viability assay.

MKN-45 = assay type: functional, cell-based; settings: Homo sapiens;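 further: growth inhibition of human MKN-45 cells, measured with a cell viability assay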
Description: SANGER: Inhibition of human MKN45 cell growth in a cell viability assay.

NB12 = assay type: functional, cell-based; settings: Homo sapiens;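 further: growth inhibition of human NB12 cells, read out by a cell viability assay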
Description: SANGER: Inhibition of human NB12 cell growth in a cell viability assay.

NCI-H520 = assay type: functional, cell-based; settings: Homo sapiens;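 further: growth inhibition of NCI-H520 cells, measured by a cell viability assay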
Description: SANGER: Inhibition of human NCI-H520 cell growth in a cell viability assay.

SW1783 = assay type: functional, cell-based; settings: Homo sapiens;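 further: cell growth inhibition measured with a viability assay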
Description: SANGER: Inhibition of human SW1783 cell growth in a cell viability assay.

OE19 = assay type: functional, cell-based; settings: Homo sapiens;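 further: growth inhibition of OE19 cells, measured through a cell viability read-out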
Description: SANGER: Inhibition of human OE19 cell growth in a cell viability assay.

HCC1806 = assay type: functional, cell-based; settings: Homo sapiens;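 further: growth inhibition of the cancer cell line, determined with a cell viability assay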
Description: SANGER: Inhibition of human HCC1806 cell growth in a cell viability assay.

LCLC-103H cell line = assay type: functional, cell-based; settings: Homo sapiens
Description: SANGER: Inhibition of human LCLC-103H cell growth in a cell viability assay.

HGC-27 = assay type: functional, cell-based; settings: Homo sapiens;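 further: growth inhibition of human HGC-27 cells, read out in a cell viability assay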
Description: SANGER: Inhibition of human HGC-27 cell growth in a cell viability assay.

Hs-578T = assay type: functional, cell-based; settings: Homo sapiens
Description: SANGER: Inhibition of human Hs-578-T cell growth in a cell viability assay.

KYSE-70 cell line = assay type: functional, cell-based; settings: Homo sapiens;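 further: cell viability assay read-out, with IC50 expressing suppression of KYSE-70 cell growth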
Description: SANGER: Inhibition of human KYSE-70 cell growth in a cell viability assay.

D-336MG = assay type: functional, cell-based; settings: Homo sapiens
Description: SANGER: Inhibition of human D-336MG cell growth in a cell viability assay.

UACC-62 = assay type: functional, cell-based; settings: Homo sapiens;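 further: growth inhibition of human UACC-62 cells, read out by a cell viability assay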
Description: SANGER: Inhibition of human UACC-62 cell growth in a cell viability assay.

NY = assay type: functional, cell-based; settings: Homo sapiens
Description: SANGER: Inhibition of human NY cell growth in a cell viability assay.

MHH-ES-1 = assay type: functional, cell-based; settings: Homo sapiens;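 further: cell growth inhibition measured by a cell viability assay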
Description: SANGER: Inhibition of human MHH-ES-1 cell growth in a cell viability assay.

C[C@]12O[C@H](C[C@]1(O)CO)n1c3ccccc3c3c4c(c5c6ccccc6n2c5c31)CNC4=O [LESTAURTINIB]
pIC50 (GCT): 6.49 | pIC50 (MDA-MB-157): 6.56 | pIC50 (UMUC3): 5.94 | pIC50 (RO82-W-1): < 5.70 | pIC50 (FaDu): 6.19 | pIC50 (NCI-H1573): 6.16 | pIC50 (SK-MES-1): 7.33 | pIC50 (COR-L105): < 5.70 | pIC50 (A204): 6.82 | pIC50 (Panc1005): < 5.70 | pIC50 (SCC-25): 6.12 | pIC50 (PANC-08-13): < 5.70 | pIC50 (LoVo): 7.50 | pIC50 (CWR22R): 5.85 | pIC50 (HT1197): < 5.70 | pIC50 (LCLC-97TM1): 6.37 | pIC50 (OE33): < 5.70 | pIC50 (COLO-741): 5.84 | pIC50 (NCI-H1563): < 5.70 | pIC50 (Ca9-22): 6.05 | pIC50 (CAL-27): 6.36 | pIC50 (NB14): 7.71 | pIC50 (UMC-11): 5.95 | pIC50 (T-24): < 5.70 | pIC50 (HCC1395): < 5.70 | pIC50 (GAMG): 6.42 | pIC50 (KYSE-180): < 5.70 | pIC50 (MKN-7): 5.74 | pIC50 (BFTC-905): 6.60 | pIC50 (NCI-H2228): < 5.70 | pIC50 (HCC1937): < 5.70 | pIC50 (MeWo): 6.14 | pIC50 (ChaGo-K-1): 5.71 | pIC50 (MOLT-13): 6.39 | pIC50 (FTC-133): 6.80 | pIC50 (BPH-1): 5.88 | pIC50 (Capan-2): < 5.70 | pIC50 (ABC-1): < 5.70 | pIC50 (DBTRG-05MG): < 5.70 | pIC50 (HT-1080): 7.39 | pIC50 (MKN-45): 5.95 | pIC50 (NB12): 5.88 | pIC50 (NCI-H520): 6.69 | pIC50 (SW1783): 5.80 | pIC50 (OE19): < 5.70 | pIC50 (HCC1806): 6.90 | pIC50 (LCLC-103H cell line): < 5.70 | pIC50 (HGC-27): 6.72 | pIC50 (Hs-578T): 6.00 | pIC50 (KYSE-70 cell line): < 5.70 | pIC50 (D-336MG): 6.71 | pIC50 (UACC-62): 5.95 | pIC50 (NY): < 5.70 | pIC50 (MHH-ES-1): 6.49

CCCS(=O)(=O)Nc1ccc(F)c(C(=O)c2c[nH]c3ncc(Cl)cc23)c1F [PLX-4720]
pIC50 (GCT): 5.06 | pIC50 (MDA-MB-157): < 5.00 | pIC50 (UMUC3): < 5.00 | pIC50 (RO82-W-1): < 5.00 | pIC50 (FaDu): < 5.00 | pIC50 (NCI-H1573): < 5.00 | pIC50 (SK-MES-1): < 5.00 | pIC50 (COR-L105): < 5.00 | pIC50 (A204): < 5.00 | pIC50 (Panc1005): < 5.00 | pIC50 (SCC-25): < 5.00 | pIC50 (PANC-08-13): < 5.00 | pIC50 (LoVo): < 5.00 | pIC50 (CWR22R): < 5.00 | pIC50 (HT1197): < 5.00 | pIC50 (LCLC-97TM1): < 5.00 | pIC50 (OE33): < 5.00 | pIC50 (COLO-741): 5.10 | pIC50 (NCI-H1563): < 5.00 | pIC50 (Ca9-22): < 5.00 | pIC50 (CAL-27): < 5.00 | pIC50 (NB14): < 5.00 | pIC50 (UMC-11): < 5.00 | pIC50 (T-24): < 5.00 | pIC50 (HCC1395): < 5.00 | pIC50 (GAMG): < 5.00 | pIC50 (KYSE-180): < 5.00 | pIC50 (MKN-7): < 5.00 | pIC50 (BFTC-905): < 5.00 | pIC50 (NCI-H2228): < 5.00 | pIC50 (HCC1937): < 5.00 | pIC50 (MeWo): < 5.00 | pIC50 (ChaGo-K-1): < 5.00 | pIC50 (MOLT-13): < 5.00 | pIC50 (FTC-133): < 5.00 | pIC50 (BPH-1): < 5.00 | pIC50 (Capan-2): < 5.00 | pIC50 (ABC-1): < 5.00 | pIC50 (DBTRG-05MG): 5.34 | pIC50 (HT-1080): 5.21 | pIC50 (MKN-45): < 5.00 | pIC50 (NB12): < 5.00 | pIC50 (NCI-H520): < 5.00 | pIC50 (SW1783): < 5.00 | pIC50 (OE19): < 5.00 | pIC50 (HCC1806): 5.17 | pIC50 (LCLC-103H cell line): < 5.00 | pIC50 (HGC-27): < 5.00 | pIC50 (Hs-578T): < 5.00 | pIC50 (KYSE-70 cell line): < 5.00 | pIC50 (D-336MG): < 5.00 | pIC50 (UACC-62): < 5.00 | pIC50 (NY): < 5.00 | pIC50 (MHH-ES-1): < 5.00
